Literature values in patent US20090163599A1, “Mif adsorbant” (priority 2004, published 2009).

Molecular target: T1, dopachrome tautomerase activity of MIF (Homo sapiens, UniProt P14174)
T1 sequence (P14174 2-115 limits assumed): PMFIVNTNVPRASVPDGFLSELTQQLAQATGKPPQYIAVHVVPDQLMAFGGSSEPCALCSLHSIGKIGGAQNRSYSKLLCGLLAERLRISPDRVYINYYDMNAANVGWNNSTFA
Conditions: known from Swope et al, J Biol Chem 273: 14877-14884, 1998

inhibiting effect on the dopachrome tautomerase activity of MIF	Compound
strong inhibiting effect	CCCCCCS [hexane thiol]
strong inhibiting effect	CCCCCCSC[C@H](NC(=O)CC[C@H](N)C(=O)O)C(=O)NCC(=O)O [S-hexylglutathione]
